Test results reported in patent publication US7396844B1, “Benzamidine derivatives” (Ajinomoto Co., Inc., priority 1997, dated 2008).
Read-outs that look alike come from different tables or passages of the source.

Tests used:
[1] = molecular target: T1, activated human blood coagulation factor X (Homo sapiens, UniProt P00742); experiment: Determination of activity of inhibiting the activated blood coagulation factor X; type: biochemical; conditions: for IC50: read-out: Activity of inhibiting activated blood coagulation factor X (pIC50) (converted)
T1 construct: purchased Enzyme Research Co
Procedure: 130 μl of 100 mM Tris-HCl buffer adjusted to pH 8.4 was added to 10 μl of an aqueous solution of a compound to be tested. Then 10 μl of a 0.5 unit/ml solution of activated human blood coagulation factor X (a product of Enzyme Research Co.) in Tris-HCl buffer hydrochloride of pH 8.4 was added to the resultant mixture. After the incubation at room temperature for 10 minutes, 50 μl of a solution of N-benzoyl-L-isoleucyl-L-glutamyl-glycyl-L-arginyl-p-nitroanilide hydrochloride (a product of Peptide Institute, Inc.) adjusted to 0.8 mM with Tris-HCl buffer (pH 8.4) was added thereto. The absorbance was determined and then the initial reaction rate was determined. A control was prepared in the same manner as that described above except that the solution of the compound to be tested was replaced with 10 μl of Tris-HCl buffer adjusted to pH 8.4.

human thrombin = molecular target: T2, human thrombin (Homo sapiens, UniProt P00734); experiment: Determination of thrombin-inhibiting activity; type: biochemical
T2 construct: human thrombin (a product of SIGMA Co.); purchased SIGMA Co
Procedure: 130 μl of 100 mM Tris-HCl buffer adjusted to pH 8.4 was added to 10 μl of an aqueous solution of a test compound. Then 10 μl of a solution of human thrombin (a product of SIGMA Co.) adjusted to 2 units/ml with Tris-HCl buffer of pH 8.4 was added to the resultant mixture. […] The absorbance was determined and then the initial reaction rate was determined. A control was prepared in the same manner as that described above except that the solution of the compound to be tested was replaced with 10 μl of tris hydrochloride buffer adjusted to pH 8.4.

blood plasma = experiment: Determination of blood anticoagulating activity by prothrombin time (PT); type: biochemical, human; set-up: key: -log of concentration doubling control PT
Procedure: The blood anticoagulating activity was determined by a prothrombin time (PT) determination method. The PT was determined as follows: The blood was taken from healthy people. […] The blood plasma was separated by the centrifugation. 5 μl of DMSO solution containing a test compound was added to 45 μl of the blood plasma. After the incubation at room temperature for 2 minutes, a test tube containing the blood plasma solution was placed in Sysmex CA-3000 fully automatic blood coagulation determination device (a product of Toa Medical Electronics Co., Ltd), and incubated at 37° C. for 3 minutes. […] PT was automatically determined with the device. A sample containing 5 μl of DMSO in place of the solution of the test compound was used as the control. The negative logarithm (PT2) of the concentration of the test compound which elongated PT of the control to the twice as long was determined, and employed as the index of the blood anticoagulating activity.

[2] = Table 2, same manner as Example 93
[3] = Table 2, same manner as Example 94, read-out: Thrombin-inhibiting activity (pIC50) (converted)
[4] = Table 2, negative logarithm of concentration that elongated PT of the control to twice as long, plasma of healthy people
[5] = Table 1, negative logarithm of concentration inhibiting 50% of initial rate, Tris-HCl pH 8.4, room temperature
[6] = Table 1, negative logarithm of concentration inhibiting 50% of initial rate, substrate S-2238, Tris-HCl pH 8.4
[7] = Table 1, negative logarithm of concentration inhibiting 50% of initial rate, substrate S-2238, Tris-HCl pH 8.4, read-out: Thrombin-inhibiting activity (pIC50) (converted)

T1 sequence (P00742 235-488 limits assumed): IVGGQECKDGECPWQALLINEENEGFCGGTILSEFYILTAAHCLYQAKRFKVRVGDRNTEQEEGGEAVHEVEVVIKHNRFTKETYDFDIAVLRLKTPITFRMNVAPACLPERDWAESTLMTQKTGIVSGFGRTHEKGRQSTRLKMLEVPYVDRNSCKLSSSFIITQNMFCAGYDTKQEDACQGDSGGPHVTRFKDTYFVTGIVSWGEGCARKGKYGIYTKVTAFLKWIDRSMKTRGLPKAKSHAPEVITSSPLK
T1 sequence (P00742 41-179 partner limits assumed): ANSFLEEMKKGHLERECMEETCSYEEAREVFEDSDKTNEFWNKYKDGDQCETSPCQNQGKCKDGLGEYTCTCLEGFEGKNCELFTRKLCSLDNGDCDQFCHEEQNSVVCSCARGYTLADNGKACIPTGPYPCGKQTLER

Compound | IC50 [1, 2] | IC50 (human thrombin; [3]) | Blood anticoagulating activity (PT2) (blood plasma; [4]) | also measured
N=C(N)c1ccc(C(=O)NCCCOc2cccc(C(=N)N)c2)cc1.O=C(O)C(F)(F)F.O=C(O)C(F)(F)F [Compound of Ex. 122, N-[3-(3-amidinophenoxy)propyl]-4-amidinobenzamide bistrifluoroacetate] | 0.501 µM | > 1000 µM | 4.5 | –
N=C(N)c1cccc(OC[C@H](Cc2ccc(OC3CCNCC3)cc2)NS(=O)(=O)c2ccc(C(=O)O)cc2)c1.O=C(O)C(F)(F)F.O=C(O)C(F)(F)F [Compound of Ex. 167, 4-[(2S)-1-[4-(4-piperidyloxy)phenyl]-3-(3-amidinophenoxy)-2-propylsulfamoyl]benzoic acid bistrifluoroacetate] | 0.501 µM | 126 µM | 5 | –
N=C(N)c1ccc(CC(=O)C(=O)O)c(OC[C@H](Cc2ccc(OC3CCNCC3)cc2)NS(=O)(=O)c2ccccc2)c1.O=C(O)C(F)(F)F.O=C(O)C(F)(F)F [Compound of Ex. 180, 3-[4-amidino-2-[(2S)-2-(benzenesulfonylamino)-3-[4-(4-piperidyloxy)phenyl]propoxy]phenyl]-2-oxopropionic acid bistrifluoroacetate] | 0.158 µM | 3.16 µM | 5.7 | –
CN(C)C(=O)c1ccc(C(=O)N[C@@H](COc2cc(C(=N)N)ccc2CC(=O)C(=O)O)CC(=O)O)cc1.O=C(O)C(F)(F)F [Compound of Ex. 188, (3R)-4-[5-amidino-2-(2-carboxy-2-oxoethyl)phenoxy]-3-(4-dimethylcarbamoylbenzoylamino)butanoic acid trifluoroacetate] | – | – | – | IC50 ([1]; Table 3, same manner as Example 93): 0.00794 µM; IC50 (human thrombin; Table 3, same manner as Example 94, read-out: Thrombin inhibiting activity (pIC50) (converted)): 398 µM; Blood anticoagulating activity (PT2) (blood plasma; Table 3, same manner as Example 184, negative logarithm of concentration doubling PT): 5.7
N=C(N)c1cccc(OCCNC(=O)c2ccc(CN)cc2)c1.O=C(O)C(F)(F)F.O=C(O)C(F)(F)F [Compound of Ex. 98, N-[2-(3-amidinophenoxy)ethyl]-4-(aminomethyl)benzamide bistrifluoroacetate] | 3.16 µM | 631 µM | <4.5 | –
N=C(N)c1ccc(C(=O)N[C@@H](COc2cccc(C(=N)N)c2)Cc2ccccc2)cc1.O=C(O)C(F)(F)F.O=C(O)C(F)(F)F [Compound of Ex. 117, N-[(1R)-2-(3-amidinophenoxy)-1-benzylethyl]-4-amidinobenzamide bistrifluoroacetate] | 0.0398 µM | 251 µM | 6.7 | –
N=C(N)c1ccc(C(=O)NCCSc2cccc(C(=N)N)c2)cc1.O=C(O)C(F)(F)F.O=C(O)C(F)(F)F [Compound of Ex. 143, N-[2-(3-amidinophenylthio)ethyl]-4-amidinobenzamide bistrifluoroacetate] | 0.501 µM | – | 5.3 | –
CC(=N)N1CCC(Oc2ccc(C[C@H](NS(=O)(=O)c3ccccc3)C(=O)Nc3cccc(C(=N)N)c3)cc2)CC1.O=C(O)C(F)(F)F.O=C(O)C(F)(F)F [Compound of Ex. 178, (2S)—N-(3-amidinophenyl)-2-(benzenesulfonylamino)-3-[4-(1-acetimidoyl-4-piperidyloxy)phenyl]propionamide bistrifluoroacetate] | 0.501 µM | > 398 µM | 5.7 | –
N=C(N)c1cccc(OC[C@H](Cc2ccc(OC3CCNCC3)cc2)NS(=O)(=O)c2ccccc2)c1.O=C(O)C(F)(F)F.O=C(O)C(F)(F)F [Compound of Ex. 154, 3-[(2S)-2-(benzenesulfonylamino)-3-[4-(4-piperidyloxy)phenyl]propoxy]benzamidine bistrifluoroacetate] | 1.58 µM | 79.4 µM | 5.1 | –
CC(=N)N1CCC(Cc2ccc(C[C@@H](COc3cccc(C(=N)N)c3)NS(=O)(=O)c3ccccc3)cc2)CC1.O=C(O)C(F)(F)F.O=C(O)C(F)(F)F [Compound of Ex. 165, 3-[(2S)-2-(benzenesulfonylamino)-3-[4-[(1-acetimidoyl-4-piperidyl)methyl]phenyl]propoxy]benzamidine bistrifluoroacetate] | 0.2 µM | 100 µM | 6 | –
CC(=N)N1CCC(Oc2ccc(C[C@@H](COc3cc(C(=N)N)ccc3CC(=O)C(=O)O)NS(=O)(=O)c3ccccc3)cc2)CC1.O=C(O)C(F)(F)F.O=C(O)C(F)(F)F [Compound of Ex. 181, 3-[4-amidino-2-[(2S)-3-[4-(1-acetimidoyl-4-piperidyloxy)phenyl]-2-(benzenesulfonylamino)propoxy]phenyl]-2-oxopropionic acid bistrifluoroacetate] | 0.02 µM | 1.58 µM | 6.7 | –
N=C(N)c1ccc(C(=O)NCCOc2cccc(C(=N)N)c2)cc1.O=C(O)C(F)(F)F.O=C(O)C(F)(F)F [Compound of Ex. 95, N-[2-(3-amidinophenoxy)ethyl]-4-amidinobenzamide bistrifluoroacetate] | 0.316 µM | – | 5.9 | –
N=C(N)c1ccc(C(=O)NCCCc2cccc(C(=N)N)c2)cc1.O=C(O)C(F)(F)F.O=C(O)C(F)(F)F [Compound of Ex. 144, N-[3-(3-amidinophenyl)propyl]-4-amidinobenzamide bistrifluoroacetate] | 1.58 µM | – | 5 | –
CC(=N)N1CCC(Oc2ccc(C(=O)N[C@@H](COc3cccc(C(=N)N)c3)CC(=O)O)cc2)CC1.O=C(O)C(F)(F)F.O=C(O)C(F)(F)F [Compound of Ex. 62, (3R)-4-(3-amidinophenoxy)-3-[4-(1-acetimidoyl-4-piperidyloxy)benzoylamino]butylic acid bistrifluoroacetate] | – | – | – | Activity of inhibiting activated blood coagulation factor X (pIC50) [1, 5]: 7.4; Thrombin-inhibiting activity (pIC50) (human thrombin; [6]): <3.3
N=C(N)Nc1ccc(C(=O)N[C@@H](COc2cccc(C(=N)N)c2)CC(=O)O)cc1 [Compound of Ex. 57, (3R)-4-(3-amidinophenoxy)-3-[(4-guanidinobenzoyl)amino]butyric acid bistrifluoroacetate] | – | – | – | IC50 [1, 5]: 0.0126 µM; IC50 (human thrombin; [7]): > 1000 µM
N=C(N)c1ccc(C(=O)N[C@@H](CCC(=O)O)COc2cccc(C(=N)N)c2)cc1 [Compound of Ex. 83, (4S)-4-(4-amidinobenzoylamino)-5-(3-amidinophenoxy)pentanoic acid bistrifluoroacetate] | – | – | – | IC50 [1, 5]: 0.158 µM; IC50 (human thrombin; [7]): > 1000 µM
N=C(N)c1ccc(C(=O)Nc2cccc(COc3cccc(C(=N)N)c3)c2)cc1.O=C(O)C(F)(F)F.O=C(O)C(F)(F)F [Compound of Ex. 69, N-[3-(3-amidinophenoxymethyl)]phenyl-4-amidinobenzamide bistrifluoroacetate] | – | – | – | Activity of inhibiting activated blood coagulation factor X (pIC50) [1, 5]: 6.6; Thrombin-inhibiting activity (pIC50) (human thrombin; [6]): 4.5
CCOP(=O)(O)c1ccc(S(=O)(=O)N[C@H](COc2cccc(C(=N)N)c2)Cc2ccc(OC3CCN(C(C)=N)CC3)cc2)cc1.O=C(O)C(F)(F)F.O=C(O)C(F)(F)F [Compound of Ex. 73] | – | – | – | Activity of inhibiting activated blood coagulation factor X (pIC50) [1, 5]: 8.1; Thrombin-inhibiting activity (pIC50) (human thrombin; [6]): 3.9
